Columns and labels:
[1] = Drug uptake in liver of mouse xenografted with human NCI-H2122 cells at 50 mg/kg, ip after 3 hrs by LC-MS/MS analysis; assay type: ADME, organism-based; conditions: read-out: Drug uptake
[2] = Drug uptake in brain of mouse xenografted with human NCI-H2122 cells at 50 mg/kg, ip after 3 hrs by LC-MS/MS analysis; assay type: ADME, organism-based; conditions: read-out: Drug uptake
[3] = Drug metabolism in mouse xenografted with human NCI-H2122 cells assessed as M5 metabolite formation in tumor at 50 mg/kg, ip after 3 hrs by LC-MS/MS analysis; assay type: ADME, organism-based, Neoplasm; conditions: in vivo
[4] = Drug uptake in kidney of mouse xenografted with human NCI-H2122 cells at 50 mg/kg, ip after 3 hrs by LC-MS/MS analysis; assay type: ADME, organism-based; conditions: read-out: Drug uptake
[5] = Drug metabolism in mouse xenografted with human NCI-H2122 cells assessed as M1 metabolite formation in liver at 50 mg/kg, ip after 3 hrs by LC-MS/MS analysis; assay type: ADME, organism-based; conditions: in vivo
[6] = Drug metabolism in mouse xenografted with human NCI-H2122 cells assessed as 6-amino-4-(2,5-dihydroxyphenyl)-3-(naphthalen-2-yl)-1,4-dihydropyrano[2,3-c]pyrazole-5-carbonitrile metabolite formation in liver at 50 mg/kg, ip after 3 hrs by LC-MS/MS analysis; assay type: ADME, organism-based; conditions: in vivo
[7] = Drug metabolism in mouse xenografted with human NCI-H2122 cells assessed as M5 metabolite formation in plasma at 50 mg/kg, ip after 3 hrs by LC-MS/MS analysis; assay type: ADME, organism-based; conditions: in vivo
[8] = Drug metabolism in mouse xenografted with human NCI-H2122 cells assessed as M3 metabolite formation in liver at 50 mg/kg, ip after 3 hrs by LC-MS/MS analysis; assay type: ADME, organism-based; conditions: in vivo
[9] = Drug metabolism in mouse xenografted with human NCI-H2122 cells assessed as M5 metabolite formation in kidney at 50 mg/kg, ip after 3 hrs by LC-MS/MS analysis; assay type: ADME, organism-based; conditions: in vivo
[10] = Drug metabolism in CD1 mouse liver microsomes assessed as CYP450-mediated mono-oxidation by measuring 6-amino-4-(2,5-dihydroxyphenyl)-3-(naphthalen-2-yl)-1,4-dihydropyrano[2,3-c]pyrazole-5-carbonitrile metabolite formation at 16.7 uM after 10 mins in presence of NADPH by LC-MS/MS analysis; assay type: ADME
[11] = Drug metabolism in mouse xenografted with human NCI-H2122 cells assessed as M4 metabolite formation in lungs at 50 mg/kg, ip after 3 hrs by LC-MS/MS analysis; assay type: ADME, organism-based, Lung; conditions: in vivo
[12] = Drug metabolism in mouse xenografted with human NCI-H2122 cells assessed as M3 metabolite formation in heart at 50 mg/kg, ip after 3 hrs by LC-MS/MS analysis; assay type: ADME, organism-based; conditions: in vivo
[13] = Drug metabolism in mouse xenografted with human NCI-H2122 cells assessed as M4 metabolite formation in kidney at 50 mg/kg, ip after 3 hrs by LC-MS/MS analysis; assay type: ADME, organism-based; conditions: in vivo
[14] = Drug metabolism in mouse xenografted with human NCI-H2122 cells assessed as M3 metabolite formation in tumor at 50 mg/kg, ip after 3 hrs by LC-MS/MS analysis; assay type: ADME, organism-based, Neoplasm; conditions: in vivo
[15] = Drug metabolism in mouse xenografted with human NCI-H2122 cells assessed as M5 metabolite formation in lungs at 50 mg/kg, ip after 3 hrs by LC-MS/MS analysis; assay type: ADME, organism-based, Lung; conditions: in vivo
[16] = Drug metabolism in mouse xenografted with human NCI-H2122 cells assessed as M3 metabolite formation in kidney at 50 mg/kg, ip after 3 hrs by LC-MS/MS analysis; assay type: ADME, organism-based; conditions: in vivo
[17] = Drug metabolism in mouse xenografted with human NCI-H2122 cells assessed as 6-amino-4-(2,5-dihydroxyphenyl)-3-(naphthalen-2-yl)-1,4-dihydropyrano[2,3-c]pyrazole-5-carbonitrile metabolite formation in tumor at 50 mg/kg, ip after 3 hrs by LC-MS/MS analysis; assay type: ADME, organism-based, Neoplasm; conditions: in vivo
[18] = Drug metabolism in mouse xenografted with human NCI-H2122 cells assessed as M5 metabolite formation in heart at 50 mg/kg, ip after 3 hrs by LC-MS/MS analysis; assay type: ADME, organism-based; conditions: in vivo
[19] = Drug uptake in tumor of mouse xenografted with human NCI-H2122 cells at 50 mg/kg, ip after 3 hrs by LC-MS/MS analysis; assay type: ADME, organism-based, Neoplasm; conditions: read-out: Drug uptake
[20] = Plasma concentration in mouse xenografted with human NCI-H2122 cells at 50 mg/kg, ip after 3 hrs by LC-MS/MS analysis; assay type: ADME, organism-based
[21] = Drug metabolism in mouse xenografted with human NCI-H2122 cells assessed as M1 metabolite formation in lungs at 50 mg/kg, ip after 3 hrs by LC-MS/MS analysis; assay type: ADME, organism-based, Lung; conditions: in vivo
[22] = Drug uptake in heart of mouse xenografted with human NCI-H2122 cells at 50 mg/kg, ip after 3 hrs by LC-MS/MS analysis; assay type: ADME, organism-based; conditions: read-out: Drug uptake
[23] = Drug metabolism in CD1 mouse liver microsomes assessed as CYP450-mediated mono-oxidation by measuring M1 metabolite formation at 16.7 uM after 10 mins in presence of NADPH by LC-MS/MS analysis; assay type: ADME
[24] = Drug metabolism in mouse xenografted with human NCI-H2122 cells assessed as M1 metabolite formation in heart at 50 mg/kg, ip after 3 hrs by LC-MS/MS analysis; assay type: ADME, organism-based; conditions: in vivo
[25] = Drug metabolism in mouse xenografted with human NCI-H2122 cells assessed as M1 metabolite formation in tumor at 50 mg/kg, ip after 3 hrs by LC-MS/MS analysis; assay type: ADME, organism-based, Neoplasm; conditions: in vivo
[26] = Drug metabolism in mouse xenografted with human NCI-H2122 cells assessed as 6-amino-4-(2,5-dihydroxyphenyl)-3-(naphthalen-2-yl)-1,4-dihydropyrano[2,3-c]pyrazole-5-carbonitrile metabolite formation in lungs at 50 mg/kg, ip after 3 hrs by LC-MS/MS analysis; assay type: ADME, organism-based, Lung; conditions: in vivo
[27] = Drug metabolism in CD1 mouse liver microsomes assessed as CYP450-mediated demethylation by measuring M4 metabolite formation at 16.7 uM after 10 mins in presence of NADPH by LC-MS/MS analysis; assay type: ADME
[28] = Drug metabolism in mouse xenografted with human NCI-H2122 cells assessed as M4 metabolite formation in heart at 50 mg/kg, ip after 3 hrs by LC-MS/MS analysis; assay type: ADME, organism-based; conditions: in vivo
[29] = Drug metabolism in mouse xenografted with human NCI-H2122 cells assessed as M4 metabolite formation in liver at 50 mg/kg, ip after 3 hrs by LC-MS/MS analysis; assay type: ADME, organism-based; conditions: in vivo
[30] = Drug metabolism in mouse xenografted with human NCI-H2122 cells assessed as 6-amino-4-(2,5-dihydroxyphenyl)-3-(naphthalen-2-yl)-1,4-dihydropyrano[2,3-c]pyrazole-5-carbonitrile metabolite formation in plasma at 50 mg/kg, ip after 3 hrs by LC-MS/MS analysis; assay type: ADME, organism-based; conditions: in vivo
[31] = Drug uptake in lungs of mouse xenografted with human NCI-H2122 cells at 50 mg/kg, ip after 3 hrs by LC-MS/MS analysis; assay type: ADME, organism-based; conditions: lung, read-out: Drug uptake
[32] = Drug metabolism in mouse xenografted with human NCI-H2122 cells assessed as M1 metabolite formation in plasma at 50 mg/kg, ip after 3 hrs by LC-MS/MS analysis; assay type: ADME, organism-based; conditions: in vivo
[33] = Drug metabolism in mouse xenografted with human NCI-H2122 cells assessed as M4 metabolite formation in tumor at 50 mg/kg, ip after 3 hrs by LC-MS/MS analysis; assay type: ADME, organism-based, Neoplasm; conditions: in vivo

**Q.** For `COc1ccc(OC)c(C2C(C#N)=C(N)Oc3[nH]nc(-c4ccc5ccccc5c4)c32)c1` (stereo not drawn), which concentration at 3 h [1] is on record?
**A.** Its concentration at 3 h is 39700 ng/g.

**Q.** And the concentration at 3 h [2]?
**A.** The concentration at 3 h was 570 ng/g.

**Q.** And the Drug metabolism [3]?
**A.** Its Drug metabolism is 1.4 ng/g.

**Q.** And the concentration at 3 h [4]?
**A.** Its concentration at 3 h is 24600 ng/g.

**Q.** And the Drug metabolism [5]?
**A.** The Drug metabolism was 557.4 ng/g.

**Q.** And the Drug metabolism [6]?
**A.** The Drug metabolism was 160.8 ng/g.

**Q.** What about the Drug metabolism [7] of the same compound?
**A.** Its Drug metabolism is 2.7 ng/mL.

**Q.** What about the Drug metabolism [8] of the same compound?
**A.** The Drug metabolism was 49.6 ng/g.

**Q.** And the Drug metabolism [9]?
**A.** The Drug metabolism was 20.9 ng/g.

**Q.** And the Drug metabolism [10]?
**A.** The Drug metabolism was “Metabolite_Detected”.

**Q.** And the Drug metabolism [11]?
**A.** Its Drug metabolism is 46.8 ng/g.

**Q.** What about the Drug metabolism [12] of the same compound?
**A.** Its Drug metabolism is 1.1 ng/g.

**Q.** And the Drug metabolism [13]?
**A.** The Drug metabolism was 260 ng/g.

**Q.** What about the Drug metabolism [14] of the same compound?
**A.** Its Drug metabolism is 0.7 ng/g.

**Q.** And the Drug metabolism [15]?
**A.** The Drug metabolism was 11.5 ng/g.

**Q.** What about the Drug metabolism [16] of the same compound?
**A.** The Drug metabolism was 4.1 ng/g.

**Q.** And the Drug metabolism [17]?
**A.** The Drug metabolism was 0.6 ng/g.

**Q.** And the Drug metabolism [18]?
**A.** Its Drug metabolism is 5.5 ng/g.

**Q.** And the concentration at 3 h [19]?
**A.** Its concentration at 3 h is 5830 ng/g.

**Q.** And the concentration at 3 h [20]?
**A.** The concentration at 3 h was 3910 ng/mL.

**Q.** What about the Drug metabolism [21] of the same compound?
**A.** Its Drug metabolism is 18.2 ng/g.

**Q.** And the concentration at 3 h [22]?
**A.** Its concentration at 3 h is 13700 ng/g.

**Q.** And the Drug metabolism [23]?
**A.** Its Drug metabolism is “Metabolite_Detected”.

**Q.** What about the Drug metabolism [24] of the same compound?
**A.** Its Drug metabolism is 12.4 ng/g.

**Q.** And the Drug metabolism [25]?
**A.** The Drug metabolism was 7.4 ng/g.

**Q.** What about the Drug metabolism [26] of the same compound?
**A.** Its Drug metabolism is 1.1 ng/g.

**Q.** And the Drug metabolism [27]?
**A.** Its Drug metabolism is “Metabolite_Detected”.

**Q.** And the Drug metabolism [28]?
**A.** Its Drug metabolism is 33.5 ng/g.

**Q.** And the Drug metabolism [29]?
**A.** Its Drug metabolism is 1391.3 ng/g.

**Q.** What about the Drug metabolism [30] of the same compound?
**A.** The Drug metabolism was 8.4 ng/mL.

**Q.** And the concentration at 3 h [31]?
**A.** The concentration at 3 h was 21600 ng/g.

**Q.** What about the Drug metabolism [32] of the same compound?
**A.** Its Drug metabolism is 7.7 ng/mL.

**Q.** What about the Drug metabolism [33] of the same compound?
**A.** The Drug metabolism was 10.2 ng/g.

Reference: ChEMBL document CHEMBL3870328, “Synthesis of novel Ral inhibitors: An in vitro and in vivo study” (Bioorg Med Chem Lett, 2016)
